# In article PMC5224920, “Assessing the mechanism and therapeutic potential of modulators of the human Mediator complex-associated protein kinases” (eLife, 2016):
# System: 12 single or co-culture in vitro tissue models of primary cells
# Assay: Culture/co-culture cell model panel, extracellular biomarkers (DiscoveRx); on CCL2/MCP-1: reference of the scale not given here; on CD38: reference of the scale not given here; on CD40: reference of the scale not given here; on CD69: reference of the scale not given here; on CXCL8/IL-8: reference of the scale not given here; on CXCL9/MIG: reference of the scale not given here; on IL-1alpha: reference of the scale not given here; on M-CSF: reference of the scale not given here; on PBMC Cytotoxicity: reference of the scale not given here
# Type: cell-based, human
# [1] = /Mphg Huvec+macrophages, 1.00E0 nM
# [2] = /Mphg Huvec+macrophages, 1.00E1 nM
# [3] = /Mphg Huvec+macrophages, 1.00E2 nM
# [4] = /Mphg Huvec+macrophages, 1.00E3 nM
# [5] = /Mphg Huvec+macrophages, 1.00E4 nM
structure (smiles),measurement,setting,value
CN1c2ccc(-c3cncc(Cl)c3N3CCC4(CC3)CNC(=O)O4)cc2CS1(=O)=O [CMPD2],Collagen III,"/HDFNo, 1.00E3 nM",0.037
same,CCL2/MCP-1,"/HDFNo, 1.00E4 nM",0.068
same,CD54/ICAM-1,"/HDFNo, 1.00E4 nM",0.057
same,CD106/VCAM-1,"/HDFNo, 1.00E4 nM",0.067
same,Collagen I,"/HDFNo, 1.00E4 nM",0.071
same,Collagen III,"/HDFNo, 1.00E4 nM",0.073
same,CCL2/MCP-1,[1],0.022
same,CCL3/MIP-1alpha,[1],0.000424
same,CD40,[1],0.00851
same,CD69,[1],0.038
same,CD106/VCAM-1,[1],0.069
same,CXCL8/IL-8,[1],0.053
same,IL-1alpha,[1],0.041
same,M-CSF,[1],-0.019
same,SRB,[1],-0.007
same,SRB-Mphg,[1],0.018
same,sIL-10,[1],0.074
same,CCL2/MCP-1,[2],-0.032
same,CCL3/MIP-1alpha,[2],-0.016
same,CD40,[2],-0.000836
same,CD69,[2],0.026
same,CD106/VCAM-1,[2],0.052
same,CXCL8/IL-8,[2],-0.00092
same,IL-1alpha,[2],0.023
same,M-CSF,[2],-0.033
same,SRB,[2],-0.013
same,SRB-Mphg,[2],0.006
same,sIL-10,[2],0.045
same,CCL2/MCP-1,[3],-0.044
same,CCL3/MIP-1alpha,[3],-0.018
same,CD40,[3],0.014
same,CD69,[3],-0.029
same,CD106/VCAM-1,[3],0.050
same,CXCL8/IL-8,[3],0.00849
same,IL-1alpha,[3],0.033
same,M-CSF,[3],-0.037
same,SRB,[3],-0.017
same,SRB-Mphg,[3],0.018
same,sIL-10,[3],-0.065
same,CCL2/MCP-1,[4],-0.085
same,CCL3/MIP-1alpha,[4],-0.034
same,CD40,[4],0.00225
same,CD69,[4],0.036
same,CD106/VCAM-1,[4],0.021
same,CXCL8/IL-8,[4],0.012
same,IL-1alpha,[4],0.019
same,M-CSF,[4],-0.046
same,SRB,[4],-0.017
same,SRB-Mphg,[4],0.008
same,sIL-10,[4],-0.137
same,CCL2/MCP-1,[5],-0.107
same,CCL3/MIP-1alpha,[5],-0.064
same,CD40,[5],-0.00011
same,CD69,[5],0.061
same,CD106/VCAM-1,[5],0.027
same,CXCL8/IL-8,[5],0.023
same,IL-1alpha,[5],0.024
same,M-CSF,[5],-0.054
same,SRB,[5],-0.021
same,SRB-Mphg,[5],-0.007
same,sIL-10,[5],-0.266
same,CCL2/MCP-1,"/TH2, 1.00E0 nM",0.046
same,CCL26/Eotaxin-3,"/TH2, 1.00E0 nM",-0.081
same,CD38,"/TH2, 1.00E0 nM",-0.015
same,CD40,"/TH2, 1.00E0 nM",-0.063
same,CD69,"/TH2, 1.00E0 nM",-0.031
same,CD87/uPAR,"/TH2, 1.00E0 nM",-0.079
same,CD106/VCAM-1,"/TH2, 1.00E0 nM",0.031
same,CXCL8/IL-8,"/TH2, 1.00E0 nM",0.026
same,CXCL9/MIG,"/TH2, 1.00E0 nM",0.021
same,Collagen IV,"/TH2, 1.00E0 nM",-0.017
same,PBMC Cytotoxicity,"/TH2, 1.00E0 nM",-0.023
same,SRB,"/TH2, 1.00E0 nM",-0.037
same,sIL-17A,"/TH2, 1.00E0 nM",0.106
same,sIL-17F,"/TH2, 1.00E0 nM",-0.026
same,CCL2/MCP-1,"/TH2, 1.00E1 nM",-0.013
same,CCL26/Eotaxin-3,"/TH2, 1.00E1 nM",-0.160
same,CD38,"/TH2, 1.00E1 nM",-0.040
same,CD40,"/TH2, 1.00E1 nM",-0.104
same,CD69,"/TH2, 1.00E1 nM",-0.024
same,CD87/uPAR,"/TH2, 1.00E1 nM",-0.129
same,CD106/VCAM-1,"/TH2, 1.00E1 nM",0.033
same,CXCL8/IL-8,"/TH2, 1.00E1 nM",-0.063
same,CXCL9/MIG,"/TH2, 1.00E1 nM",0.013
same,Collagen IV,"/TH2, 1.00E1 nM",-0.009
same,PBMC Cytotoxicity,"/TH2, 1.00E1 nM",-0.008
same,SRB,"/TH2, 1.00E1 nM",-0.062
same,sIL-17A,"/TH2, 1.00E1 nM",0.100
same,sIL-17F,"/TH2, 1.00E1 nM",-0.047
same,CCL2/MCP-1,"/TH2, 1.00E2 nM",-0.044
same,CCL26/Eotaxin-3,"/TH2, 1.00E2 nM",-0.160
same,CD38,"/TH2, 1.00E2 nM",-0.008
same,CD40,"/TH2, 1.00E2 nM",-0.119
same,CD69,"/TH2, 1.00E2 nM",-0.012
same,CD87/uPAR,"/TH2, 1.00E2 nM",-0.098
same,CD106/VCAM-1,"/TH2, 1.00E2 nM",0.035
same,CXCL8/IL-8,"/TH2, 1.00E2 nM",-0.029
same,CXCL9/MIG,"/TH2, 1.00E2 nM",0.013
same,Collagen IV,"/TH2, 1.00E2 nM",0.016
same,PBMC Cytotoxicity,"/TH2, 1.00E2 nM",-0.007
same,SRB,"/TH2, 1.00E2 nM",-0.066
same,sIL-17A,"/TH2, 1.00E2 nM",0.165
same,sIL-17F,"/TH2, 1.00E2 nM",0.173
same,CCL2/MCP-1,"/TH2, 1.00E3 nM",-0.082
same,CCL26/Eotaxin-3,"/TH2, 1.00E3 nM",-0.177
same,CD38,"/TH2, 1.00E3 nM",-0.024
same,CD40,"/TH2, 1.00E3 nM",-0.095
same,CD69,"/TH2, 1.00E3 nM",-0.010
same,CD87/uPAR,"/TH2, 1.00E3 nM",-0.180
same,CD106/VCAM-1,"/TH2, 1.00E3 nM",0.017
same,CXCL8/IL-8,"/TH2, 1.00E3 nM",-0.045
same,CXCL9/MIG,"/TH2, 1.00E3 nM",0.011
same,Collagen IV,"/TH2, 1.00E3 nM",-0.006
same,PBMC Cytotoxicity,"/TH2, 1.00E3 nM",-0.011
same,SRB,"/TH2, 1.00E3 nM",-0.062
same,sIL-17A,"/TH2, 1.00E3 nM",0.168
same,sIL-17F,"/TH2, 1.00E3 nM",-0.013
same,CCL2/MCP-1,"/TH2, 1.00E4 nM",-0.093
same,CCL26/Eotaxin-3,"/TH2, 1.00E4 nM",-0.166
same,CD38,"/TH2, 1.00E4 nM",-0.035
same,CD40,"/TH2, 1.00E4 nM",-0.115
same,CD69,"/TH2, 1.00E4 nM",-0.043
same,CD106/VCAM-1,"/TH2, 1.00E4 nM",0.00327
same,CXCL8/IL-8,"/TH2, 1.00E4 nM",-0.042
same,CXCL9/MIG,"/TH2, 1.00E4 nM",0.000193
same,Collagen IV,"/TH2, 1.00E4 nM",-0.031
same,PBMC Cytotoxicity,"/TH2, 1.00E4 nM",-0.017
same,SRB,"/TH2, 1.00E4 nM",-0.065
same,sIL-17A,"/TH2, 1.00E4 nM",0.146
same,sIL-17F,"/TH2, 1.00E4 nM",-0.041
same,CCL26/Eotaxin-3,"BENo, 1.00E0 nM",0.071
same,CD54/ICAM-1,"BENo, 1.00E0 nM",0.057
same,CD87/uPAR,"BENo, 1.00E0 nM",0.050
same,CXCL8/IL-8,"BENo, 1.00E0 nM",0.030
same,CXCL9/MIG,"BENo, 1.00E0 nM",0.080
same,CXCL10/IP-10,"BENo, 1.00E0 nM",0.112
same,CXCL11/I-TAC,"BENo, 1.00E0 nM",0.105
same,EGFR,"BENo, 1.00E0 nM",0.075
same,HLA-DR,"BENo, 1.00E0 nM",0.134
same,IL-1alpha,"BENo, 1.00E0 nM",0.066
same,Keratin 8/18,"BENo, 1.00E0 nM",0.059
same,MMP-1,"BENo, 1.00E0 nM",0.060
same,MMP-9,"BENo, 1.00E0 nM",-0.001
same,PAI-I,"BENo, 1.00E0 nM",-0.018
same,SRB,"BENo, 1.00E0 nM",0.00452
same,tPA,"BENo, 1.00E0 nM",0.028
same,uPA,"BENo, 1.00E0 nM",0.026
same,CCL26/Eotaxin-3,"BENo, 1.00E1 nM",0.036
same,CD54/ICAM-1,"BENo, 1.00E1 nM",0.042
same,CD87/uPAR,"BENo, 1.00E1 nM",0.062
same,CXCL8/IL-8,"BENo, 1.00E1 nM",0.077
same,CXCL9/MIG,"BENo, 1.00E1 nM",0.047
same,CXCL10/IP-10,"BENo, 1.00E1 nM",0.119
same,CXCL11/I-TAC,"BENo, 1.00E1 nM",0.092
same,EGFR,"BENo, 1.00E1 nM",0.077
same,HLA-DR,"BENo, 1.00E1 nM",0.115
same,IL-1alpha,"BENo, 1.00E1 nM",0.048
same,Keratin 8/18,"BENo, 1.00E1 nM",0.047
same,MMP-1,"BENo, 1.00E1 nM",0.063
same,MMP-9,"BENo, 1.00E1 nM",-0.010
same,PAI-I,"BENo, 1.00E1 nM",-0.050
same,SRB,"BENo, 1.00E1 nM",0.00136
same,tPA,"BENo, 1.00E1 nM",0.026
same,uPA,"BENo, 1.00E1 nM",0.026
same,CCL26/Eotaxin-3,"BENo, 1.00E2 nM",0.038
same,CD54/ICAM-1,"BENo, 1.00E2 nM",-0.034
same,CD87/uPAR,"BENo, 1.00E2 nM",0.110
same,CXCL8/IL-8,"BENo, 1.00E2 nM",0.017
same,CXCL9/MIG,"BENo, 1.00E2 nM",0.084
same,CXCL10/IP-10,"BENo, 1.00E2 nM",0.121
same,CXCL11/I-TAC,"BENo, 1.00E2 nM",0.082
same,EGFR,"BENo, 1.00E2 nM",0.066
same,HLA-DR,"BENo, 1.00E2 nM",0.075
same,IL-1alpha,"BENo, 1.00E2 nM",0.078
same,Keratin 8/18,"BENo, 1.00E2 nM",0.033
same,MMP-1,"BENo, 1.00E2 nM",0.055
same,MMP-9,"BENo, 1.00E2 nM",0.015
same,PAI-I,"BENo, 1.00E2 nM",-0.035
same,SRB,"BENo, 1.00E2 nM",0.002
same,tPA,"BENo, 1.00E2 nM",0.038
same,uPA,"BENo, 1.00E2 nM",0.032
same,CCL26/Eotaxin-3,"BENo, 1.00E3 nM",0.020
same,CD54/ICAM-1,"BENo, 1.00E3 nM",-0.011
same,CD87/uPAR,"BENo, 1.00E3 nM",0.063
same,CXCL8/IL-8,"BENo, 1.00E3 nM",0.028
same,CXCL9/MIG,"BENo, 1.00E3 nM",0.087
same,CXCL10/IP-10,"BENo, 1.00E3 nM",0.136
same,CXCL11/I-TAC,"BENo, 1.00E3 nM",0.044
same,EGFR,"BENo, 1.00E3 nM",0.034
same,HLA-DR,"BENo, 1.00E3 nM",0.115
same,IL-1alpha,"BENo, 1.00E3 nM",0.047
same,Keratin 8/18,"BENo, 1.00E3 nM",0.017
same,MMP-1,"BENo, 1.00E3 nM",0.039
same,MMP-9,"BENo, 1.00E3 nM",0.056
same,PAI-I,"BENo, 1.00E3 nM",-0.090
